{
  "source": "patent US9693556B2",
  "about": "“Herbicidal pyridazinone derivatives” (SYNGENTA LIMITED, priority 2011, dated 2017)",
  "format_in_all_cases": "in vivo",
  "key": {"[1]": {"system": "Ipomoea hederacea (IPOHE)", "assay": "Post-emergence herbicidal glasshouse test on Ipomoea hederacea", "settings": "for POST Application IPOHE herbicidal damage (five point scale): post-emergence, 1000 g/h, evaluated after 13 days", "summary_of_the_method": "(§1)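 Read-out: percentage herbicidal damage 13 days after spraying, given on a five-point scale (5=80-100%, 4=60-79%, 3=40-59%, 2=20-39%, 1=0-19%). Pots of standard soil; application at 1000 g/h, one day post-sowing for pre-emergence, eight days for post-emergence.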"}, "[2]": {"system": "Alopecurus myosuroides (ALOMY)", "assay": "Post-emergence herbicidal glasshouse test on Alopecurus myosuroides", "settings": "for POST Application ALOMY herbicidal damage (five point scale): post-emergence, 1000 g/h, evaluated after 13 days", "summary_of_the_method": "as §1"}, "[3]": {"system": "Echinochloa crus-galli (ECHCG)", "assay": "Pre-emergence herbicidal glasshouse test on Echinochloa crus-galli", "settings": "for PRE Application ECHCG herbicidal damage (five point scale): pre-emergence, 1000 g/h, evaluated after 13 days", "summary_of_the_method": "as §1"}, "[4]": {"system": "Echinochloa crus-galli (ECHCG)", "assay": "Post-emergence herbicidal glasshouse test on Echinochloa crus-galli", "settings": "for POST Application ECHCG herbicidal damage (five point scale): post-emergence, 1000 g/h, evaluated after 13 days", "summary_of_the_method": "as §1"}, "[5]": {"system": "Alopecurus myosuroides (ALOMY)", "assay": "Pre-emergence herbicidal glasshouse test on Alopecurus myosuroides", "settings": "for PRE Application ALOMY herbicidal damage (five point scale): pre-emergence, 1000 g/h, evaluated after 13 days", "summary_of_the_method": "as §1"}, "[6]": {"system": "Ipomoea hederacea (IPOHE)", "assay": "Pre-emergence herbicidal glasshouse test on Ipomoea hederacea", "settings": "for PRE Application IPOHE herbicidal damage (five point scale): pre-emergence, 1000 g/h, evaluated after 13 days", "summary_of_the_method": "as §1"}, "Solanum nigrum (SOLNI) [7]": {"system": "Solanum nigrum (SOLNI)", "assay": "Post-emergence herbicidal glasshouse test on Solanum nigrum", "settings": "for POST Application SOLNI herbicidal damage (five point scale): post-emergence, 1000 g/h, evaluated after 13 days", "summary_of_the_method": "as §1"}, "[8]": {"system": "Amaranthus retoflexus (AMARE)", "assay": "Pre-emergence herbicidal glasshouse test on Amaranthus retoflexus", "settings": "for PRE Application AMARE herbicidal damage (five point scale): pre-emergence, 1000 g/h, evaluated after 13 days", "summary_of_the_method": "as §1"}, "Setaria faberi (SETFA) [9]": {"system": "Setaria faberi (SETFA)", "assay": "Pre-emergence herbicidal glasshouse test on Setaria faberi", "settings": "for PRE Application SETFA herbicidal damage (five point scale): pre-emergence, 1000 g/h, evaluated after 13 days", "summary_of_the_method": "as §1"}, "Solanum nigrum (SOLNI) [10]": {"system": "Solanum nigrum (SOLNI)", "assay": "Pre-emergence herbicidal glasshouse test on Solanum nigrum", "settings": "for PRE Application SOLNI herbicidal damage (five point scale): pre-emergence, 1000 g/h, evaluated after 13 days", "summary_of_the_method": "as §1"}, "[11]": {"system": "Amaranthus retoflexus (AMARE)", "assay": "Post-emergence herbicidal glasshouse test on Amaranthus retoflexus", "settings": "for POST Application AMARE herbicidal damage (five point scale): post-emergence, 1000 g/h, evaluated after 13 days", "summary_of_the_method": "as §1"}, "Setaria faberi (SETFA) [12]": {"system": "Setaria faberi (SETFA)", "assay": "Post-emergence herbicidal glasshouse test on Setaria faberi", "settings": "for POST Application SETFA herbicidal damage (five point scale): post-emergence, 1000 g/h, evaluated after 13 days", "summary_of_the_method": "as §1"}},
  "data": [
    {"smiles": "Cc1ccc(Cl)cc1-n1c(-c2cccc(F)c2)ncc(-c2cnn(C)c(=O)c2O)c1=O", "note": "[Compound 10.004]", "values": [
      {"measurement": "POST Application IPOHE", "setting": "[1]; post-emergence application, Ipomoea hederacea, damage score 1-5", "value": "4 (4=60-79% damage)"},
      {"measurement": "POST Application ALOMY", "setting": "[2]; post-emergence application, Alopecurus myosuroides, damage score 1-5", "value": "1 (1=0-19% damage)"},
      {"measurement": "PRE Application ECHCG", "setting": "[3]; pre-emergence application, Echinochloa crus-galli, damage score 1-5", "value": "1 (1=0-19% damage)"},
      {"measurement": "POST Application ECHCG", "setting": "[4]; post-emergence application, Echinochloa crus-galli, damage score 1-5", "value": "4 (4=60-79% damage)"},
      {"measurement": "PRE Application ALOMY", "setting": "[5]; pre-emergence application, Alopecurus myosuroides, damage score 1-5", "value": "1 (1=0-19% damage)"},
      {"measurement": "PRE Application IPOHE", "setting": "[6]; pre-emergence application, Ipomoea hederacea, damage score 1-5", "value": "1 (1=0-19% damage)"},
      {"measurement": "POST Application SOLNI", "setting": "Solanum nigrum (SOLNI) [7]; post-emergence application, Solanum nigrum, damage score 1-5", "value": "5 (5=80-100% damage)"},
      {"measurement": "PRE Application AMARE", "setting": "[8]; pre-emergence application, Amaranthus retoflexus, damage score 1-5", "value": "2 (2=20-39% damage)"},
      {"measurement": "PRE Application SETFA", "setting": "Setaria faberi (SETFA) [9]; pre-emergence application, Setaria faberi, damage score 1-5", "value": "1 (1=0-19% damage)"},
      {"measurement": "PRE Application SOLNI", "setting": "Solanum nigrum (SOLNI) [10]; pre-emergence application, Solanum nigrum, damage score 1-5", "value": "1 (1=0-19% damage)"},
      {"measurement": "POST Application AMARE", "setting": "[11]; post-emergence application, Amaranthus retoflexus, damage score 1-5", "value": "5 (5=80-100% damage)"},
      {"measurement": "POST Application SETFA", "setting": "Setaria faberi (SETFA) [12]; post-emergence application, Setaria faberi, damage score 1-5", "value": "3 (3=40-59% damage)"}
    ]},
    {"smiles": "CSc1ccc(-c2c(C(F)(F)F)ccn(-c3cnn(C)c(=O)c3O)c2=O)cc1", "note": "[Compound 7.036]", "values": [
      {"measurement": "POST Application IPOHE herbicidal damage (five point scale)", "setting": "[1]", "value": "4 (4=60-79% damage)"},
      {"measurement": "POST Application ALOMY herbicidal damage (five point scale)", "setting": "[2]", "value": "2 (2=20-39% damage)"},
      {"measurement": "PRE Application ECHCG herbicidal damage (five point scale)", "setting": "[3]", "value": "1 (1=0-19% damage)"},
      {"measurement": "POST Application ECHCG herbicidal damage (five point scale)", "setting": "[4]", "value": "4 (4=60-79% damage)"},
      {"measurement": "PRE Application ALOMY herbicidal damage (five point scale)", "setting": "[5]", "value": "2 (2=20-39% damage)"},
      {"measurement": "PRE Application IPOHE herbicidal damage (five point scale)", "setting": "[6]", "value": "4 (4=60-79% damage)"},
      {"measurement": "POST Application SOLNI herbicidal damage (five point scale)", "setting": "Solanum nigrum (SOLNI) [7]", "value": "5 (5=80-100% damage)"},
      {"measurement": "PRE Application AMARE herbicidal damage (five point scale)", "setting": "[8]", "value": "5 (5=80-100% damage)"},
      {"measurement": "PRE Application SETFA herbicidal damage (five point scale)", "setting": "Setaria faberi (SETFA) [9]", "value": "2 (2=20-39% damage)"},
      {"measurement": "PRE Application SOLNI herbicidal damage (five point scale)", "setting": "Solanum nigrum (SOLNI) [10]", "value": "5 (5=80-100% damage)"},
      {"measurement": "POST Application AMARE herbicidal damage (five point scale)", "setting": "[11]", "value": "5 (5=80-100% damage)"},
      {"measurement": "POST Application SETFA herbicidal damage (five point scale)", "setting": "Setaria faberi (SETFA) [12]", "value": "3 (3=40-59% damage)"}
    ]},
    {"smiles": "CC[S+]([O-])c1ccccc1-c1cnn(COC)c(=O)c1O", "note": "(stereo not drawn) [Compound 2.003]", "values": [
      {"measurement": "POST Application IPOHE herbicidal damage (five point scale)", "setting": "[1]", "value": "4 (4=60-79% damage)"},
      {"measurement": "POST Application ALOMY herbicidal damage (five point scale)", "setting": "[2]", "value": "3 (3=40-59% damage)"},
      {"measurement": "PRE Application ECHCG herbicidal damage (five point scale)", "setting": "[3]", "value": "4 (4=60-79% damage)"},
      {"measurement": "POST Application ECHCG herbicidal damage (five point scale)", "setting": "[4]", "value": "5 (5=80-100% damage)"},
      {"measurement": "PRE Application ALOMY herbicidal damage (five point scale)", "setting": "[5]", "value": "3 (3=40-59% damage)"},
      {"measurement": "PRE Application IPOHE herbicidal damage (five point scale)", "setting": "[6]", "value": "1 (1=0-19% damage)"},
      {"measurement": "POST Application SOLNI herbicidal damage (five point scale)", "setting": "Solanum nigrum (SOLNI) [7]", "value": "5 (5=80-100% damage)"},
      {"measurement": "PRE Application AMARE herbicidal damage (five point scale)", "setting": "[8]", "value": "5 (5=80-100% damage)"},
      {"measurement": "PRE Application SETFA herbicidal damage (five point scale)", "setting": "Setaria faberi (SETFA) [9]", "value": "4 (4=60-79% damage)"},
      {"measurement": "PRE Application SOLNI herbicidal damage (five point scale)", "setting": "Solanum nigrum (SOLNI) [10]", "value": "1 (1=0-19% damage)"},
      {"measurement": "POST Application AMARE herbicidal damage (five point scale)", "setting": "[11]", "value": "5 (5=80-100% damage)"},
      {"measurement": "POST Application SETFA herbicidal damage (five point scale)", "setting": "Setaria faberi (SETFA) [12]", "value": "4 (4=60-79% damage)"}
    ]},
    {"smiles": "Cn1cccc(-c2cnn(C)c(=O)c2O)c1=O", "note": "[Compound 9.003]", "values": [
      {"measurement": "POST Application IPOHE herbicidal damage (five point scale)", "setting": "[1]", "value": "2 (2=20-39% damage)"},
      {"measurement": "POST Application ALOMY herbicidal damage (five point scale)", "setting": "[2]", "value": "1 (1=0-19% damage)"},
      {"measurement": "PRE Application ECHCG herbicidal damage (five point scale)", "setting": "[3]", "value": "1 (1=0-19% damage)"},
      {"measurement": "POST Application ECHCG herbicidal damage (five point scale)", "setting": "[4]", "value": "1 (1=0-19% damage)"},
      {"measurement": "PRE Application ALOMY herbicidal damage (five point scale)", "setting": "[5]", "value": "1 (1=0-19% damage)"},
      {"measurement": "PRE Application IPOHE herbicidal damage (five point scale)", "setting": "[6]", "value": "1 (1=0-19% damage)"},
      {"measurement": "POST Application SOLNI herbicidal damage (five point scale)", "setting": "Solanum nigrum (SOLNI) [7]", "value": "4 (4=60-79% damage)"},
      {"measurement": "PRE Application AMARE herbicidal damage (five point scale)", "setting": "[8]", "value": "2 (2=20-39% damage)"},
      {"measurement": "PRE Application SETFA herbicidal damage (five point scale)", "setting": "Setaria faberi (SETFA) [9]", "value": "1 (1=0-19% damage)"},
      {"measurement": "PRE Application SOLNI herbicidal damage (five point scale)", "setting": "Solanum nigrum (SOLNI) [10]", "value": "1 (1=0-19% damage)"},
      {"measurement": "POST Application AMARE herbicidal damage (five point scale)", "setting": "[11]", "value": "4 (4=60-79% damage)"},
      {"measurement": "POST Application SETFA herbicidal damage (five point scale)", "setting": "Setaria faberi (SETFA) [12]", "value": "2 (2=20-39% damage)"}
    ]}
  ]
}
